Literature values in patent US20040265344A1, “Aloe suppositories” (priority 2003, published 2004).

Assays:
[1] = system: rat colonic mucosa sodium and potassium adenosine triphosphatase (ATP-ase); conditions: in vitro
[2] = system: residual fluid volume

SMILES | effect on rat colonic mucosa sodium and potassium ATP-ase [1] | effect on the rise in residual fluid volume [2]
O=C1c2c(O)cccc2Cc2cc(CO)cc(O)c21 [Aloe-emodin-9-anthrone] | inhibited | –
CN(C)C(=O)C(CCN1CCC(O)(c2ccc(Cl)cc2)CC1)(c1ccccc1)c1ccccc1 [loperamide] | – | did not completely inhibit
